Experimental findings from a melting point compilation (Tetko et al.; mined from patent text by program, amines drawn as free bases though some values may be those of a salt) are described below.

By melting point is commonly meant the temperature of the solid-liquid transition.

`COc1cc(C(=O)C(Br)Br)cc(OC)c1OC`: the melting point was in the range of 67 to 68 °C.
With `O=C(O)C(=O)c1ccc(OCCCCCOc2ccccc2)cc1`, the melting point lay within 69 to 70 °C.
`O=C(Cc1cccc(Cl)c1F)c1ccc(F)c(Cl)c1` came in with a melting point of 109 to 111 °C.
Next, `CSc1nc(OCCN2CCCC2=O)c(C#N)c(N2CCc3ccccc3CC2)n1`: 126 to 128 °C.
Next, `CC(C)(C)NS(=O)(=O)c1c(C(Br)Br)nsc1OCC(F)(F)F`: 135 to 138 °C; `Cc1cc(N2C(=O)N(CCCCCCCCCSCCCC(F)(F)C(F)(F)F)C(C)(C)C2=O)ccc1NS(=O)(=O)NC(=O)OC(C)(C)C`: 122 to 124 °C; `CC(C)[C@H](NC(=O)OCc1ccccc1)C(=O)N[C@@H](Cc1ccccc1)[C@@H](O)[C@@H](O)[C@H](Cc1ccccc1)NC(=O)OC(C)(C)C`: 178 to 182 °C.
Next, `Cc1cc(C)cc(Sc2cccc(N)c2C#N)c1`: 124 to 125 °C; `O=c1cc(N2CCCCC2)oc2c1ccc1ccccc12`: 205 to 207 °C.
As for `Cn1nc2cccc(O)c2c1S(N)(=O)=O`, the melting point was 180 to 181 °C.
As for `O=S(=O)(c1ccccc1)N1CCCC1c1ccccc1` (racemic), the melting point was found to be 116 °C.
Next, `COC(=O)c1ccc(Cn2ccn(C3CCc4ccccc4C3)c2=S)cc1` (stereo not given): 133 to 135 °C; `CCN(CC)c1ccc(-c2cc(-c3ccc(C(=O)O)cc3)ccc2OCCCCO)cc1C(C)(C)C`: 165 °C.
`Cc1nc(-c2ccc(OCC(C)C)c(C=O)c2)sc1C(=O)O` registered a melting point of 213 to 217 °C.
Next, `CCCC(=O)c1cnc2c(OC)cccc2c1Nc1ccc(OC)cc1C`: 161 to 163 °C.
Next, `O=C1OC(Br)c2cc(Br)ccc21` (stereo not given): 100 °C; `Cc1nc2ccccc2c(NCC(O)CO)c1Br` (stereo not given): 140 to 141 °C.
`S=C1NCC(Cl)=NN1c1cc(Cl)cc(Cl)c1`: the melting point was 207 to 208 °C.
The compound `CC(=O)NC(C)(C)c1ccc(CN2CCN(c3ccccc3)CC2)cc1` registered a melting point of 110 to 111 °C.
Next, `Cc1c(SCCCSCCc2ccccc2)ccnc1CSc1ccncc1`: 48 to 50 °C; `CCOC(=S)c1cc(C)c(Br)cc1N`: 48 to 50 °C.
Next, `O=C1CCC(c2ccccc2F)=NN1`: 119 to 121 °C; `CN(C)C(=O)Oc1ccc2c(c1)N(Cc1ccccc1)CCC2`: 104 °C.
Next, `COc1ccc(-c2cc(-c3nc(C)cs3)c(=O)n(C)c2-c2cnccn2)cc1`: 168 to 170 °C.
`C/C(=C\c1cccc2c1NCCNC2=O)CCCC(=O)O`: the melting point was 257 to 259 °C.
Next, `CC1(C)CN(C2CCN(c3ccc(F)c(Cl)c3)C2=O)C1=O` (stereo not given): 120 to 121 °C; `CCCCCC1=NN(C(=O)NC2C3CC4CC(C3)CC2C4)CC1c1ccccc1` (stereo not given): 71 °C.
As for `CCOC(=O)C1=C(C)NC(CF)=C(C(=O)OCC)C1c1cccc([N+](=O)[O-])c1` (stereo not given), the melting point is 139 to 141 °C.
Next, `COc1ccc(-c2c(Cl)ncnc2NS(=O)(=O)c2ccc(OC)cc2)cc1`: 165 to 167 °C.
`CCOC(=O)COc1ccc(C(C)=O)cc1NC(=O)c1ccc(OCCCCc2ccccc2)cc1`: the melting point was in the range of 105 to 107 °C.
`CC(C)(C)OC(=O)[C@H]1C[C@@H](C(=O)OCc2ccccc2)[C@@H](c2ccccc2)N1C(=O)CNC(=O)Nc1cccc(C(=O)OCc2ccccc2)c1` (racemic): the melting point was 110 °C.
Next, `CN1CCCCCC1=NC(=O)Nc1c(Cl)cccc1Cl`: 143 to 144 °C.
Next, `Cn1c(C2CC2)nc2c1CCCC2=O`: 108 °C; `Cc1sc(N)c(C(=O)c2ccc(Br)s2)c1C`: 128 to 130 °C.
On to `Cc1cc(-c2cc3ncccc3c(=O)[nH]2)cc(C)c1O`, for which the melting point is more than 350 °C.
For `Cc1ccc(NS(=O)(=O)Cc2ccccc2)c(OCc2ccccc2)c1CC(=O)O`, the melting point lay within 132 to 134 °C.
As for `CC(C)(C(N)=O)c1ccc(C(=O)O)cc1`, the melting point is 218 to 219 °C.
As for `COc1ccc(-c2cnn3c(N)c(-c4ccc(F)c(Cl)c4)c(C)nc23)cc1`, the melting point fell in the range of 224 to 227 °C.
Next, `CC(=O)N[C@H]1C=C[C@@H](CO)C1`: 77 to 80 °C; `CSC1=CC2=CN(S)NN2C(C)=N1`: 256 to 258 °C; `O=C(c1ccccc1C(F)(F)F)N1CCCN(CC2=Nc3cccc4c(=O)[nH]nc(c34)N2)CC1`: 140 to 142 °C.
Next, `Nc1cccc(C(F)(F)F)c1CCl`: 155 to 161 °C; `CC#CCOc1ccc(S(=O)(=O)NC(C(=O)NO)c2ccc(OCCN3CCCC3)cc2)cc1` (stereo not given): 70 °C; `O=Cc1csc(N2CCOCC2)n1`: 107 to 108 °C.
Compound `CSC(=S)Nc1ccc2c(c1)OCO2` had a melting point of 114 to 115 °C.
Next, `COC(=O)NCc1cc(OC)cc(Cl)c1Cl`: 90 to 91 °C; `CC(=O)NC1CCn2c1nc1cc(NC(=O)c3cc4cc(F)ccc4n3Cc3cccc(F)c3)cnc12` (stereo not given): 282 to 283 °C; `CNc1cc(Oc2ccc(NC(=O)Nc3ccc(-c4ccncc4)c(C(F)(F)F)c3)cc2)ncn1`: 127 to 130 °C.
Next, `COc1ccc(C(=O)OCCN2CCC(Nc3nc4ccccc4n3Cc3ccc(F)cc3)CC2)cc1`: 189 °C; `CC(C)C[C@H](NC(=O)OCC1CC=CCC1)C(=O)N[C@@H](Cc1ccccc1)C(=O)CSCc1ccco1` (stereo not given in full): 85 to 87 °C; `CCC(N(C)C)n1cc(C(=O)CN2CCCCC2)cc1C(=O)c1ccc(Cl)cc1` (stereo not given): 138 to 141 °C.
Next, `COc1ccc(Cn2ccc3c(-c4ccco4)ncnc32)cc1`: 130 to 131 °C.
For `CCOC(=O)N1CCC2(CC1)C(=O)NCN2c1ccc(F)cc1`, the melting point amounted to 153 °C.
`CCCN(CCC)c1nsc(NC(=O)NC)c1C#N`: the melting point is 179 to 180 °C.
For the compound `COc1ccc(C=C(C#N)c2ccccn2)cc1OC`, the melting point is 112 °C.
As for `CN1CCN(C2=Nc3cc(F)ccc3N3CCc4cccc2c43)CC1`, the melting point fell in the range of 151 to 153 °C.
For `Cn1nc(C#N)c(Nc2ccc(Cl)cc2[N+](=O)[O-])n1`, the melting point was 166 to 168 °C.
Next, `O=c1[nH]c(-c2cccnc2O)nc2ccccc12`: 190 to 192 °C; `CCOc1n[nH]c(=O)n1CC`: 115 °C.
Next, `CCOC(=O)C1=C(C)Nc2nc(N3CCOCC3)nc(N3CCOCC3)c2C1c1ccsc1` (stereo not given): 208 °C; `Nc1ccc(-c2cc3[nH]c4ccc(O)cc4c3c3c2C(=O)NC3=O)cc1`: 256 to 258 °C.
In the case of `Cc1c(Cl)cccc1S(=O)(=O)Nc1nc(CC(=O)N2CCSCC2)cs1`, the melting point lay within 103 to 106 °C.
Compound `CCCCNC(=O)n1c(=NC(F)(F)F)oc2ccc([N+](=O)[O-])cc21` displayed a melting point of 121 to 122 °C.
Next, `CC(C)(C)OC(=O)NCCOc1noc2ccc(F)cc12`: 104 to 105 °C; `COc1cc(/C=C(\C#N)c2c[nH]c3ccc(OC)cc23)cc(OC)c1`: 141 °C; `COC1=C(OC)C(=O)C(CCCCCCCCCCCCOC(C)=O)=C(C)C1=O`: 47 °C.
`O=c1ccc2ccc(OCCCCN3CCCN(c4cccc(Cl)c4Cl)CC3)cc2[nH]1` had a melting point of 55 to 57 °C.
Compound `COc1nc(NC(=O)NS(=O)(=O)c2ccccc2OC(F)F)nc(NC(C)(C)C)n1` registered a melting point of 213 to 214 °C.
Regarding `Cn1cc2c(ncn3nc(-c4ccco4)nc23)n1`, the melting point lay in the range of 155 to 156 °C.
Next, `O=C(NC(=O)c1ccccc1)NC1CCN(Cc2ccccc2)CC1`: 179 to 180 °C; `COc1cccc2c1CCC1=C2CC(=O)N1`: 220 to 222 °C.
In turn, `Cc1ccccc1Nc1nc(Cl)c2sccc2n1` gave a melting point of 87 to 89 °C.
In turn, `CNS(=O)(=O)c1ccc(Nc2nc(-c3ccccc3)cc(N3CCC(O)CC3)n2)cc1` yielded a melting point of 280 to 285 °C.
Next, `Cc1nc2cc(OCc3ccccc3)c(OCc3ccccc3)cc2nc1C(=O)OCc1ccccc1`: 137 to 139 °C; `CC(C)(C)OC(=O)N1CCn2c(-c3ccccc3)cc(C(N)=O)c2C1`: 208 to 210 °C.
Next, `Nc1cc(-c2noc(-c3cnc4ccc(-c5ccc(C(F)(F)F)cc5)cn34)n2)ccn1`: 280 °C; `COc1cc(S(=O)(=O)c2ccccc2)ccc1N`: 149 to 150 °C; `NC(=O)c1ccc(Nc2nc(OCC3CCCCC3)c3nc[nH]c3n2)cc1`: 156 to 158 °C.
Next, `c1ccc2c(c1)cc1n2CC2(CCNC2)C1` (stereo not given): 90 to 92 °C; `N#CCN1C(=O)C2(COc3cc4c(cc32)OCO4)c2ccccc21` (stereo not given): 170 to 172 °C.
In turn, `C1=Cc2ccccc2C2(CO2)c2ccccc21` registered a melting point of 90 to 91 °C.
Regarding `CCOC(=O)c1cc(C(C)=O)on1`, the melting point was 67 to 68 °C.
Next, `COCC(=O)OC[C@@H]1CC(c2ccc(-c3ccc(N4C[C@H](Cn5ccnn5)OC4=O)cc3F)cn2)=NO1`: 170 °C.
Next, `CC1CN(c2c(F)cc3c(=O)c(C(=O)O)cn(C4CC4)c3c2F)CC1CN` (stereo not given): 249 to 252 °C.
`O=C1Cn2c(nc3ccccc3c2=O)-c2ccccc2N1` registered a melting point of 318 to 319 °C.
Take `O=C1N(Cc2ccc(Cl)s2)c2ccccc2C12COc1ccc(OCc3ccccc3)cc12` (stereo not given): the melting point was 132 to 135 °C.
In turn, `CC(=O)c1cnc2onc(C)c2c1O` came in with a melting point of 162 °C.
The compound `OC(c1ccc(OCc2ccccc2)cc1)c1ccc(OCc2ccccc2)cc1` came in with a melting point of 113 to 120 °C.
`N#CNC(=NCC(O)c1cccc(O)c1)NCCSCc1csc(NC(=N)N)n1` (stereo not given) had a melting point of 162 to 164 °C.
Next, `O=S(=O)(NCc1ccccc1)c1cccc(-c2cc(-c3nc(-c4ccc(C(F)(F)F)cc4)cc(C(F)(F)F)n3)ccn2)c1`: 202 °C.
